Test results as given in US7294457B2, “Direct binding assay for identifying inhibitors of HCV polymerase” (priority 2001, dated 2007).
“And” between values parts separate entries of the source, which are not always exact repeats. Identical values can stand only once.

Experiments:
NS5BΔ21-His polymerase = target: T1, NS5BΔ21-His polymerase (Hepatitis C virus genotype 1b, UniProt P26663); assay: Fluorescence anisotropy titration of probe with NS5BΔ21-His; assay type: binding, HCV; settings: Kd of probe for NS5BΔ21-His
T1 construct: a variant that lacks the C-terminal 21 amino acids normally found on the mature NS5B; hexa-histidine (C); made in house; host or cells: E. coli JM109 (DE3), pET vector
Procedure: Titration of the probe with the enzyme was performed as follows:
(§1) The fluorescein labeled probe was diluted to the desired concentration in 20 mM Tris-HCl pH 7.5, 1 mM EDTA, 5 mM MgCl2, 1 mM DTT and 10% DMSO. The NS5BΔ21-His protein was serially diluted in 25 mM Tris-HCl pH 7.5, 300 mM NaCl, 5 mM DTT, 1 mM EDTA, 30% glycerol and 0.1% IGEPAL. Total volume of the reaction was 500 μL and final assay buffer was 20 mM Tris-HCl pH 7.5, 1 mM EDTA, 5 mM MgCl2, 1 mM DTT, 30 mM NaCl, 3% glycerol, 0.01% IGEPAL and 5% DMSO. Anisotropy measurements were performed on a SLM Aminco 8100 Spectrofluorometer equipped with a 450-W xenon arc lamp and a T-optics configuration. Excitation wavelength was at 493 nm and emission was monitored at 530 nm. In each anisotropy measurement, the parallel and perpendicular intensities of the background buffer solution was subtracted from the measured values of the sample and the anisotropy was calculated. Data were processed on SAS program (SAS Institute Inc., NC, USA) for a non linear regression to obtain the direct binding equilibrium constant and other parameters, and the plot of the regressed fit over the experimental data. An example of a titration curve obtained with probe (i) is shown on FIG. 1.
The usefulness of this polarization assay is evident when binding of compounds has to be studied under different conditions. For example, binding constants of the probes have been determined at different concentrations of salts and pH. FIGS. 5 to 8 show the binding curves of probe (i) in final NaCl concentrations ranging from 30 mM to 200 mM. […] All other reagents in the assay were as described in the standard protocol (Example 3). […] Studies at pH 6.5 were also performed to determine the Kd of the probe (i) at lower pH. For these assays, 20 mM Phosphate buffer pH 6.5 was used in place of Tris; all other reagents of the assay were as described in the 96-well Polarization assay (Example 4). […] Having established these Kd values under different experimental conditions, it is then trivial to determine what concentrations of probe and enzyme should be used to obtain 70% of binding of the probe with the equilibrium equation. Once these values are obtained, compounds of interest can easily be studied under the new conditions to determine their Kd values.

GBV-BΔ23-His polymerase = target: T2, GBV-BΔ23-His polymerase (Hepatitis GB virus B, UniProt Q69422); assay: Fluorescence anisotropy titration of probe with GBV-B polymerase; assay type: binding
T2 construct: The GBV-B polymerase enzyme (termed GBV-BΔ23-His; 3); His tag (C); made in house; host or cells: E. coli JM109 (DE3), pET vector
Procedure: as §1, with “An example of a titration curve obtained with probe (i) is shown on FIG. 1.” left out
(§2) The GBV-B and the HCV 1a polymerases were used to titrate probe ii, using the protocol described in Example 3. […] Kd values for a series of compounds were determined with these two HCV (genotypes 1a and 1b) polymerases, using the assay format described in Example 4.

[1] = target: T3, His-NS5BΔ21(H77c, HCV genotype 1a) polymerase (Hepatitis C virus genotype 1a, UniProt P27958); assay: Fluorescence anisotropy titration of probe with HCV genotype 1a polymerase; assay type: binding; settings: Kd of probe for HCV genotype 1a polymerase, standard conditions of Example 3
T3 construct: The HCV genotype 1a NS5B polymerase [termed His-NS5BΔ21 (H77c, 1a); 4]; His tag (N); made in house; host or cells: E. coli JM109 (DE3), pET vector
Procedure: as §1, with “data.” for “data. An example of a titration curve obtained with probe (i) is shown on FIG. 1.”
as §2

His-NS5BΔ21 polymerase = target: T4, His-NS5BΔ21 polymerase (Hepatitis C virus genotype 1b, UniProt P26663); assay: Fluorescence anisotropy/polarization titration of probe with His-NS5BΔ21; assay type: binding, HCV; settings: Kd of probe for N-terminally tagged His-NS5BΔ21, standard conditions
T4 construct: a variant that lacks the C-terminal 21 amino acids normally found on the mature NS5B; hexa-histidine (N); made in house; host or cells: E. coli JM109 (DE3), pET vector
Procedure: as §1, with “Data were processed on SAS program (SAS Institute Inc., NC, USA) for a non linear regression to obtain the direct binding equilibrium constant and other parameters, and the plot of the regressed fit over the experimental data. An example of a titration curve obtained with probe (i) is shown on FIG. 1.” left out
To obtain Kd values of different compounds competing with these probes (test compounds), this assay was transformed to a more amenable format and a binding assay was made suitable for a 96-well microplate reader. […] The NS5BΔ21-His concentration in the assay was calculated to obtain 70% of binding of the probe; these conditions allowed for the displacement of the probe by test compounds. […]
The Fluorescence polarization assay was also used with other constructs of our HCV polymerase enzyme. […]

[2] = standard conditions of Example 3 (Tris-HCl pH 7.5, 30 mM NaCl)

| SMILES | Kd (NS5BΔ21-His polymerase; [2]) | Kd (GBV-BΔ23-His polymerase; Kd of probe for GBV-BΔ23-His polymerase, estimated value with an incomplete curve) | Kd with GBV-B polymerase relative to HCV polymerases (GBV-BΔ23-His polymerase; fold higher Kd, specificity) | Kd [1] | Kd (His-NS5BΔ21 polymerase) | Kd (NS5BΔ21-His polymerase; 20 mM Phosphate buffer pH 6.5 in place of Tris) | Kd (NS5BΔ21-His polymerase; 30 mM NaCl) | Kd (NS5BΔ21-His polymerase; 100 mM NaCl) | Kd (NS5BΔ21-His polymerase; 150 mM NaCl) | Kd (NS5BΔ21-His polymerase; 200 mM NaCl) |
| --- | --- | --- | --- | --- | --- | --- | --- | --- | --- | --- |
| O=C(O)COc1ccc2[nH]cc(C[C@H](NC(=O)c3ccc4c(c3)nc(-c3ccc(OCC(=O)NCCNC(=S)Nc5ccc(-c6c7ccc(=O)cc-7oc7cc(O)ccc67)c(C(=O)O)c5)cc3)n4C3CCCCC3)C(=O)O)c2c1 [probe (ii), 5-(3-{2-[2-(4-{5-[(S)-1-Carboxy-2-(5-carboxymethoxy-1-H-indol-3-yl)-ethylcarbamoyl]-1-cyclohexyl-1H-benzimidazol-2-yl}-phenoxy)-ethanoylamino]-ethyl}-thioureido)-2-(6-hydroxy-3-oxo-3H-xanthen-9-yl)-benzoic acid] | 6 nM | 1800 nM and 1790 nM | at least 100 fold | 18 nM and 18.2 nM | – | – | – | – | – | – |
| O=C(O)COc1ccc2[nH]cc(C[C@H](NC(=O)c3ccc4c(c3)nc(-c3ccc(C(=O)NCCNC(=S)Nc5ccc(-c6c7ccc(=O)cc-7oc7cc(O)ccc67)c(C(=O)O)c5)cc3)n4C3CCCCC3)C(=O)O)c2c1 [probe (i), 5-[3-(2-{[1-(4-{5-[(S)-1-Carboxy-2-(5-carboxymethoxy-1-H-indol-3-yl)-ethylcarbamoyl]-1-cyclohexyl-1H-benzimidazol-2-yl}-phenyl)-methanoyl]-amino}-ethyl)-thioureido]-2-(6-hydroxy-3-oxo-3H-xanthen-9-yl)-benzoic acid] | 15 nM and 12.6 nM | – | – | – | 18 nM and 18.1 nM | 33 nM | 15 nM and 15.3 nM | 39 nM | 78 nM | 122 nM |
